Molecular target: T1, A5-LOX (soybean); arachidonate-5-lipoxygenase
T1 construct: gene LOX1.1; most likely lipoxygenase-1
Experiment: spectrophotometric, absorbance at […] nm
Type: biochemical, Glycine max
Settings: linoleic acid substrate ([…] μL of […]), sodium phosphate pH […] °C, […] min preincubation

Anti-A5-LOX activity IC50 (μg mL^- 1): 1.76 ± 0.15 μg mL^− 1
Compound: O=c1cc(-c2ccccc2)oc2cc(O)c(O)c(O)c12 [Baicalein]

Reference: PMC6169004, “In vitro pro-inflammatory enzyme inhibition and anti-oxidant potential of selected Sri Lankan medicinal plants” (BMC Complementary and Alternative Medicine, 2018)
